In the supplement of paper PMC4862054:

What was measured:
Conditions in all cases: incubation time: 72 h
MDA-MB-231 [1] = assay: drug sensitivity score (DSS), CellTox Green (DSS (AUC-based score)); higher = stronger drug effect (viability inhibition or cytotoxicity); extreme values may be limits of the assay
Procedure, shortened: (§1)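 After 72 h of incubation in 384-well plates with compound at 5 concentrations (10-fold steps, 10,000-fold range set per compound), breast cancer cell lines seeded in 20 µl suspension were read first for CellTox Green fluorescence at 485/520 nm. CellTiter-Glo luminescence was measured next, after 10 min at room temperature. Normalisation on each plate used 0.1 % DMSO and a positive kill control, and the drug sensitivity score was computed from the area under the fitted dose-response curve.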

DU-4475 = assay: as above
Procedure, shortened: as §1

CAL-148 [2] = assay: as above
Procedure, shortened: as §1

BT-474 = assay: as above
Procedure, shortened: as §1

MFM-223 [3] = assay: as above
Procedure, shortened: as §1

HDQ-P1 [4] = assay: as above
Procedure, shortened: as §1

HCC1143 = assay: as above
Procedure, shortened: as §1

CAL-120 [5] = assay: as above
Procedure, shortened: as §1

BT-549 [6] = assay: as above
Procedure, shortened: as §1

HCC1599 = assay: as above
Procedure, shortened: as §1

HCC1937 = assay: as above
Procedure, shortened: as §1

CAL-51 [7] = assay: as above
Procedure, shortened: as §1

MDA-MB-436 = assay: as above
Procedure, shortened: as §1

CAL-85-1 [8] = assay: as above
Procedure, shortened: as §1

MDA-MB-231 [9] = assay: normalised viability (% of control), CellTiter-Blue; higher = more viable cells (about 100 = DMSO control)
Procedure, shortened: (§2)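 Breast cancer cell lines in 20 µl suspension were seeded onto 384-well plates pre-loaded with compound dissolved in 5 µl medium, then incubated 72 h. CellTiter-Blue reagent (2.5 µl) was added for 2 h at 37 °C and fluorescence read at 560/590 nm. Each plate was normalised to vehicle (100) and a positive kill control (0), with Z'-factor quality control. The value is normalised viability at one listed concentration of the series.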

CAL-148 [10] = assay: as above
Procedure, shortened: as §2

SK-BR-3 = assay: as above
Procedure, shortened: as §2

MFM-223 [11] = assay: as above
Procedure, shortened: as §2

HDQ-P1 [12] = assay: as above
Procedure, shortened: as §2

CAL-120 [13] = assay: as above
Procedure, shortened: as §2

BT-549 [14] = assay: as above
Procedure, shortened: as §2

MDA-MB-468 = assay: as above
Procedure, shortened: as §2

CAL-51 [15] = assay: as above
Procedure, shortened: as §2

CAL-85-1 [16] = assay: as above
Procedure, shortened: as §2

Hs578T = assay: drug sensitivity score (DSS), CellTox Green (DSS (AUC-based score)); higher = stronger drug effect (viability inhibition or cytotoxicity); extreme values may be limits of the assay
Procedure, shortened: as §1

Cn1cc(C2=C(c3cn(C4CCN(Cc5ccccn5)CC4)c4ccccc34)C(=O)NC2=O)c2ccccc21 [Enzastaurin]
Conditions | drug sensitivity score
BT-474 | 0
BT-549 [6] | 0
CAL-51 [7] | 0
CAL-85-1 [8] | 0
CAL-120 [5] | 0
CAL-148 [2] | 0
DU-4475 | 0
HCC1143 | 0
HCC1599 | 0
HCC1937 | 0
HDQ-P1 [4] | 0
MDA-MB-231 [1] | 0
MDA-MB-436 | 0
MFM-223 [3] | 0

normalised viability [%]
Conditions | BT-549 [14] | CAL-51 [15] | CAL-85-1 [16] | CAL-120 [13] | CAL-148 [10] | HDQ-P1 [12] | MDA-MB-231 [9] | MDA-MB-468 | MFM-223 [11] | SK-BR-3
3 nM | – | 117 | 85.1 | – | 78.6 | 113 | – | – | – | –
10 nM | 92.4 | – | – | 89.6 | – | – | 88.2 | 103 | 90 | 99.8
30 nM | – | 111 | 93.4 | – | 80.2 | 107 | – | – | – | –
100 nM | – | 107 | 85.4 | – | 78.5 | 89.3 | – | – | – | –
1000 nM | 68.9 | – | – | 95 | – | – | 89.6 | 107 | 65.1 | 63.4
10000 nM | 48.1 | – | – | 65.9 | – | – | 71.1 | 62.8 | 55.9 | 37

CC(C)C[C@H](NC(=O)[C@@H](COC(C)(C)C)NC(=O)[C@H](Cc1ccc(O)cc1)NC(=O)[C@H](CO)NC(=O)[C@H](Cc1c[nH]c2ccccc12)NC(=O)[C@H](Cc1cnc[nH]1)NC(=O)[C@@H]1CCC(=O)N1)C(=O)N[C@@H](CCCNC(=N)N)C(=O)N1CCC[C@H]1C(=O)NNC(N)=O [Goserelin]
Conditions | drug sensitivity score
BT-474 | 0.105
BT-549 [6] | 0
CAL-51 [7] | 0
CAL-85-1 [8] | 0
CAL-120 [5] | 0
CAL-148 [2] | 0
DU-4475 | 0
HCC1143 | 0
HCC1599 | 0
HCC1937 | 0
HDQ-P1 [4] | 0.917
Hs578T | 1.59
MDA-MB-231 [1] | 0
MDA-MB-436 | 0

normalised viability [%]
Conditions | BT-549 [14] | CAL-51 [15] | CAL-85-1 [16] | CAL-120 [13] | CAL-148 [10] | HDQ-P1 [12] | MDA-MB-231 [9] | MDA-MB-468 | MFM-223 [11] | SK-BR-3
3 nM | – | 107 | 102 | – | 92 | 104 | – | – | – | –
10 nM | 85.9 | – | – | 96.4 | – | – | 102 | 96.5 | 92.1 | 98.8
30 nM | – | 104 | 93.9 | – | 97 | 109 | – | – | – | –
100 nM | – | 105 | 102 | – | 98.9 | 103 | – | – | – | –
1000 nM | 88 | – | – | 93.1 | – | – | 110 | 94.5 | 87.8 | 106
10000 nM | 103 | – | – | 94.4 | – | – | 114 | 108 | 100 | 94.7
